# Test: Surface tension and critical micelle concentration (CMC) of aqueous surfactant solutions
# Assay type: physicochemical
# Conditions: Table 3; deionized water
# Text: Critical Micelle Concentration (CMC): The critical micelle concentration is defined as the concentration at which further surface tension is no longer lowered with increasing levels of surfactant. […] Surface tension is then plotted vs. log concentration and the data points are connected. The resulting curve has a nearly horizontal flat portion at concentrations above the CMC and has a negative steep slope at concentrations below the CMC. The CMC is defined as the lowest surfactant concentration in the horizontal flat portion of the curve.
# (§1) Then the critical micelle concentration (CMC) was determined for each surfactant.
# as §1
Compound,CMC [ppm],solubility
O=C([O-])CC[N+]1(CCCNC(=O)C(F)(C(F)(F)F)C(F)(F)C(F)(F)C(F)(F)C(F)(F)C(F)(F)C(F)(F)C(F)(F)F)CCOCC1 (stereo not shown) [Example K3],1000,–
O=C(NCCC[N+]1(CCO)CCOCC1)C(F)(C(F)(F)F)C(F)(F)C(F)(F)C(F)(F)C(F)(F)C(F)(F)C(F)(F)C(F)(F)F (stereo not shown) [Example F5],1000,–
O=C(NCCC[N+]1([O-])CCOCC1)C(F)(C(F)(F)F)C(F)(F)C(F)(F)C(F)(F)C(F)(F)C(F)(F)C(F)(F)C(F)(F)F (stereo not shown) [Example E9],–,low solub.
"C[N+](C)([O-])CCCNC(=O)C(F)(C(F)(F)C(F)(F)C(F)(F)F)C(F)(F)C(F)(F)C(F)(F)C(F)(F)C(F)(F)C(F)(F)C(F)(F)F (stereo not shown) [Example E7, C7 F15 CF(C3 F7)CONH(CH2)3 N^+ (CH3)2 O^-]",–,low solub.

# Same assay, conditions: Table 3; deionized water, at CMC
row,Compound,Surf Tens. (surface tension at the CMC) [dynes/cm]
1,"C[N+](C)(CCCNC(=O)C(F)(C(F)(F)F)C(F)(F)C(F)(F)C(F)(F)C(F)(F)C(F)(F)C(F)(F)C(F)(F)F)CCC(=O)[O-] (stereo not shown) [Example K1, C7 F15 CF(CF3)CONH(CH2)3 N^+ (CH3)2 C2 H4 COO^-]",16.6
2,O=C(OCCc1cccc[n+]1[O-])C(F)(C(F)(F)F)C(F)(F)C(F)(F)C(F)(F)C(F)(F)C(F)(F)C(F)(F)C(F)(F)F (stereo not shown) [Example E13],15.0
3,"C[N+](C)([O-])CCCNC(=O)C(F)(C(F)(F)F)C(F)(F)C(F)(F)C(F)(F)C(F)(F)C(F)(F)C(F)(F)C(F)(F)C(F)(F)F (stereo not shown) [Example E4, C8 F17 CF(CF3)CONH(CH2)3 N^+ (CH3)2 O^-]",16.5
4,C[n+]1ccc(C(=O)NCCOC(=O)C(F)(C(F)(F)F)C(F)(F)C(F)(F)C(F)(F)C(F)(F)C(F)(F)C(F)(F)C(F)(F)F)cc1 (stereo not shown) [Example F1],15.0
5,C8 F17 CF(CF3)CO(OCH2 CH2)16 OCH3 [Example J1],22
6,C[N+](C)(CCO)CCCNC(=O)C(F)(C(F)(F)F)C(F)(F)C(F)(F)C(F)(F)C(F)(F)C(F)(F)F (stereo not shown) [Example F3],17.0
7,O=C([O-])CC[N+]1(CCCNC(=O)C(F)(C(F)(F)F)C(F)(F)C(F)(F)C(F)(F)C(F)(F)C(F)(F)C(F)(F)C(F)(F)F)CCOCC1 (stereo not shown) [Example K3],19.2
8,O=C(NCCC[N+]1(CCO)CCOCC1)C(F)(C(F)(F)F)C(F)(F)C(F)(F)C(F)(F)C(F)(F)C(F)(F)C(F)(F)C(F)(F)F (stereo not shown) [Example F5],20.8
9,C[n+]1ccc(C(=O)NCCOC(=O)C(F)(C(F)(F)F)C(F)(F)C(F)(F)C(F)(F)C(F)(F)C(F)(F)C(F)(F)F)cc1 (stereo not shown) [Example F2],15.5
10,C[N+](C)(CCCN(CCC[N+](C)(C)CCC(=O)[O-])C(=O)C(F)(C(F)(F)F)C(F)(F)C(F)(F)C(F)(F)C(F)(F)C(F)(F)C(F)(F)C(F)(F)F)CCC(=O)[O-] (stereo not shown) [Example K4],23.6
11,C[N+](C)(CCO)CCCNC(=O)C(F)(C(F)(F)F)C(F)(F)C(F)(F)C(F)(F)C(F)(F)C(F)(F)C(F)(F)C(F)(F)F (stereo not shown) [Example F4],19.0
12,O=C(NCCOC(=O)C(F)(C(F)(F)F)C(F)(F)C(F)(F)C(F)(F)C(F)(F)C(F)(F)C(F)(F)F)c1cc[n+]([O-])cc1 (stereo not shown) [Example E11],15.5
13,"C[N+](C)([O-])CCCNC(=O)C(F)(C(F)(F)F)C(F)(F)C(F)(F)C(F)(F)C(F)(F)C(F)(F)C(F)(F)C(F)(F)C(F)(F)C(F)(F)C(F)(F)F (stereo not shown) [Example E5, C10 F21 CF(CF3)CONH(CH2)3 N^+ (CH3)2 O^-]",17.1
14,"CN(C)CCCN(CCCN(C)C)C(=O)C(F)(C(F)(F)F)C(F)(F)C(F)(F)C(F)(F)C(F)(F)C(F)(F)C(F)(F)C(F)(F)F (stereo not shown) [Example F9, C7 F15 CF(CF3)CON[C3 H6 N^+ (CH3)2 H]2 2[^- OOCCH3]]",22.0
15,"C[N+](C)([O-])CCCNC(=O)C(F)(C(F)(F)F)C(F)(F)C(F)(F)C(F)(F)C(F)(F)C(F)(F)C(F)(F)F (stereo not shown) [Example E3, C6 F13 CF(CF3)CONH(CH2)3 N^+ (CH3)2 O^-]",16.6
16,C6 F13 CF(CF3)CON(C3 H6 SO3^-)(CH2)3 N^+ (CH3)2 H [Example K2],20.3
17,"C[N+](C)([O-])CCCN(CCO)C(=O)C(F)(C(F)(F)F)C(F)(F)C(F)(F)C(F)(F)C(F)(F)C(F)(F)C(F)(F)C(F)(F)F (stereo not shown) [Example E8, C7 F15 CF(CF3)CON(C2 H4 OH)(CH2)3 N^+ (CH3)2 O^-]",16.6
18,O=C(NCCOC(=O)C(F)(C(F)(F)F)C(F)(F)C(F)(F)C(F)(F)C(F)(F)C(F)(F)C(F)(F)C(F)(F)F)c1cc[n+]([O-])cc1 (stereo not shown) [Example E10],14.5
19,O=C(OCCc1cccc[n+]1[O-])C(F)(C(F)(F)F)C(F)(F)C(F)(F)C(F)(F)C(F)(F)C(F)(F)C(F)(F)F (stereo not shown) [Example E12],18.3
20,"C[N+](C)([O-])CCCNC(=O)C(F)(C(F)(F)F)C(F)(F)C(F)(F)C(F)(F)C(F)(F)C(F)(F)C(F)(F)C(F)(F)F (stereo not shown) [Example E1, C7 F15 CF(CF3)CONH(CH2)3 N^+ (CH3)2 O^-]",16.3
21,"C[N+](C)([O-])CCCNC(=O)C(F)(C(F)(F)F)C(F)(F)C(F)(F)C(F)(F)C(F)(F)C(F)(F)F (stereo not shown) [Example E2, C5 F11 CF(CF3)CONH(CH2)3 N^+ (CH3)2 O^-]",17.5

# Same assay, conditions: Table 5; deionized water, at CMC
row,Compound,Surf. Tens. (surface tension at the CMC) [dynes/cm]
1,"O=C(O)C(F)(C(F)(F)F)C(F)(F)C(F)(F)C(F)(F)C(F)(F)C(F)(F)C(F)(F)C(F)(F)F (stereo not shown) [Example M27, C7 F15 CF(CF3)COO^- Li^+]",24.1
2,"O=C(O)C(F)(C(F)(F)F)C(F)(F)C(F)(F)C(F)(F)C(F)(F)C(F)(F)C(F)(F)C(F)(F)C(F)(F)C(F)(F)C(F)(F)F (stereo not shown) [Example M18, C10 F21 CF(CF3)COO^- H4 N^+]",14.8
3,"O=C(O)C(F)(C(F)(F)F)C(F)(F)C(F)(F)C(F)(F)C(F)(F)C(F)(F)C(F)(F)F (stereo not shown) [Example M16, C6 F13 CF(CF3)COO^- H4 N^+]",17.9
4,"O=C(O)C(F)(C(F)(F)F)C(F)(F)C(F)(F)C(F)(F)C(F)(F)C(F)(F)C(F)(F)F (stereo not shown) [Example M25, C6 F13 CF(CF3)COO^- Na^+]",19.8
5,"O=C(O)C(F)(C(F)(F)F)C(F)(F)C(F)(F)C(F)(F)C(F)(F)C(F)(F)C(F)(F)C(F)(F)C(F)(F)F (stereo not shown) [Example M17, C8 F17 CF(CF3)COO^- H4 N^+]",14.7
6,"O=C(O)C(F)(C(F)(F)F)C(F)(F)C(F)(F)C(F)(F)C(F)(F)C(F)(F)C(F)(F)F (stereo not shown) [Example M22, C6 F13 CF(CF3)COO^- K^+]",17.5
7,"O=C(O)C(F)(C(F)(F)F)C(F)(F)C(F)(F)C(F)(F)C(F)(F)C(F)(F)C(F)(F)C(F)(F)F (stereo not shown) [Example M23, C7 F15 CF(CF3)COO^- K^+]",15.0
8,"O=C(O)C(F)(C(F)(F)F)C(F)(F)C(F)(F)C(F)(F)C(F)(F)C(F)(F)C(F)(F)C(F)(F)F (stereo not shown) [Example M30, C7 F15 CF(CF3)COO^- 1/2[H3 N^+ C2 H4 NHC2 H4 N^+ H3]]",16.2
9,"O=C(O)C(F)(C(F)(F)F)C(F)(F)C(F)(F)C(F)(F)C(F)(F)C(F)(F)F (stereo not shown) [Example M15, C5 F11 CF(CF3)COO^- H4 N^+]",22.1
10,"O=C(O)C(F)(C(F)(F)F)C(F)(F)C(F)(F)C(F)(F)C(F)(F)C(F)(F)C(F)(F)C(F)(F)F (stereo not shown) [Example M20, C7 F15 CF(CF3)COO^- H3 N^+ C2 H4 OH]",15.0
11,"O=C(O)C(F)(C(F)(F)F)C(F)(F)C(F)(F)C(F)(F)C(F)(F)C(F)(F)C(F)(F)C(F)(F)F (stereo not shown) [Example M26, C7 F15 CF(CF3)COO^- Na^+]",19.4
12,"O=C(O)C(F)(C(F)(F)F)C(F)(F)C(F)(F)C(F)(F)C(F)(F)C(F)(F)C(F)(F)C(F)(F)C(F)(F)F (stereo not shown) [Example M24, C8 F17 CF(CF3)COO^- K^+]",16.4

# Test: Thermogravimetric analysis of neat perfluorocarboxylate salts
# Assay type: physicochemical
# Conditions: neat salt, 10° C./min, nitrogen
# Text: Thermal degradation measurements were made on a series of neat perfluorocarboxylate salts, including several ax-branched open chain structures (Examples N2-N9), a primarily linear open chain structure (Example N10--Fluorad™ FC-143 Fluorochemical Surfactant, commercially available from 3M Company, St. Paul, Minn.), and a closed chain (i.e., cyclic) structure (Example N11--made by the electrochemical fluorination of benzoic acid and hydrolysis in the presence of KOH, as described in U.S. Pat. No. 2,567,011 (Diesslin et al.)).
# The perfluorocarboxylate salts were tested using a Perkin-Elmer TGA 7 thermogravimetric analysis apparatus and a salt sample size of approximately 5 mg, a heating rate of 10° C./min, and a nitrogen gas flow rate of 40-45 mL/min. Using the TGA 7 software, the following temperatures were recorded: (1) the onset temperature of decomposition, (2) the temperature at which 50% of the sample weight was lost, and (3) the temperature at which 90% of the sample weight was lost.
Compound,onset temperature of decomposition [°C],temperature for 50% loss [°C],temperature for 90% loss [°C]
"O=C(O)C(F)(C(F)(F)F)C(F)(F)C(F)(F)C(F)(F)C(F)(F)C(F)(F)C(F)(F)C(F)(F)C(F)(F)C(F)(F)C(F)(F)F (stereo not shown) [Example M18, C10 F21 CF(CF3)COO^- H4 N^+]",164,181,188
"O=C(O)C(F)(C(F)(F)F)C(F)(F)C(F)(F)C(F)(F)C(F)(F)C(F)(F)C(F)(F)F (stereo not shown) [Example M16, C6 F13 CF(CF3)COO^- H4 N^+]",165,179,193
"O=C(O)C(F)(C(F)(F)C(F)(F)F)C(F)(F)C(F)(F)C(F)(F)C(F)(F)C(F)(F)C(F)(F)F (stereo not shown) [Example M19, C6 F13 CF(C2 F5)COO^- H4 N^+]",153,171,188
"O=C(O)C(F)(C(F)(F)F)C(F)(F)C(F)(F)C(F)(F)C(F)(F)C(F)(F)C(F)(F)C(F)(F)C(F)(F)F (stereo not shown) [Example M17, C8 F17 CF(CF3)COO^- H4 N^+]",142,162,184
O=C(O)C1(F)C(F)(F)C(F)(F)C(F)(F)C(F)(F)C1(F)F [reference compound],100,110,120

# Same assay, conditions: neat salt, 10° C./min, nitrogen; listed as N2
Compound,onset temperature of decomposition [°C],temperature for 50% loss [°C],temperature for 90% loss [°C]
"O=C(O)C(F)(C(F)(F)F)C(F)(F)C(F)(F)C(F)(F)C(F)(F)C(F)(F)F (stereo not shown) [Example M15, C5 F11 CF(CF3)COO^- H4 N^+]",166,178,188

# Same assay, conditions: neat salt, 10° C./min, nitrogen; listed as N8
Compound,onset temperature of decomposition [°C],temperature for 50% loss [°C],temperature for 90% loss [°C]
"O=C(O)C(F)(C(F)(F)F)C(F)(F)C(F)(F)C(F)(F)C(F)(F)C(F)(F)F (stereo not shown) [Example M28, C5 F11 CF(CF3)COO^- Na^+]",236,250,263
